Data reported in patent US20090130212A1, “COMPOSITION AND IMPROVED METHOD FOR PREPARATION OF SMALL PARTICLES” (PHYSICAL PHARMACEUTICA, LLC, priority 2006, published 2009).

Key:
Format in all cases: physicochemical
[1] = pKa / ionization of ibuprofen; settings: pH of 2
[2] = Dissolution of ibuprofen in 0.01N HCl, microdialysis sampling and HPLC (Example 3); settings: 50 ml 0.01N HCl pH 2, 25° C
Description: The remaining ether was removed by evaporation at room temperature in a vacuum oven at less than 10 torr, for 2 hours.

[3] = Aqueous solubility of ibuprofen; settings: pH 2, in 50 ml

- fraction unionized [1]: more than 99%
- amount of ibuprofen dissolved ([2]; after five minutes): approximately 790 mcg
- amount of ibuprofen dissolved ([2]; after one minute): approximately 190 mcg
- amount of ibuprofen dissolved ([2]; after two minutes): approximately 350 mcg
- amount dissolved corresponding to solubility [3]: 4000 µg
Compound: CC(C)Cc1ccc(C(C)C(=O)O)cc1 (centres unmarked) [pure ibuprofen, ibuprofen]
